Measurements taken from US6737383B1, “Herbicidal oxadiazolidines” (priority 1999, dated 2004).

Experiments:
blackgrass = assay: Test B pre/postemergence blackgrass; format: in vivo, Alopecurus myosuroides
Summary of the method: (§1)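 Response is a visual 0-to-10 score relative to untreated plants, where 0 means no effect and 10 means complete control, taken twelve to sixteen days after application. Treatments went onto soil at planting and onto foliage of 1- to 4-leaf plants, using a surfactant-containing non-phytotoxic solvent.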

soybean = assay: Test B pre/postemergence soybean; format: in vivo, Glycine max
Summary of the method: as §1

surinam grass = assay: Test B pre/postemergence surinam grass; format: in vivo, Brachiaria decumbens
Summary of the method: as §1

bamyardgrass = assay: Test B flood test barnyardgrass; format: in vivo, Echinochloa crus-galli
Summary of the method: (§2)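 Flood test on plants grown to the 2-leaf stage; treated plants kept in greenhouse twelve to sixteen days, then visually rated against controls on a 0 (no effect) to 10 (complete control) scale.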

purple nutsedge = assay: Test B pre/postemergence purple nutsedge; format: in vivo, Cyperus rotundus
Summary of the method: as §1

bedstraw = assay: Test B pre/postemergence bedstraw; format: in vivo, Galium aparine
Summary of the method: as §1

corn = assay: Test B pre/postemergence corn; format: in vivo, Zea mays
Summary of the method: as §1

velvetleaf = assay: Test B pre/postemergence velvetleaf; format: in vivo, Abutilon theophrasti
Summary of the method: as §1

rape = assay: Test B pre/postemergence rape; format: in vivo, Brassica napus
Summary of the method: as §1

duck salad = assay: Test B flood test duck salad; format: in vivo, Heteranthera limosa
Summary of the method: as §2

sugar beet = assay: Test B pre/postemergence sugar beet; format: in vivo, Beta vulgaris
Summary of the method: as §1

cocklebur = assay: Test B pre/postemergence cocklebur; format: in vivo, Xanthium strumarium
Summary of the method: as §1

giant foxtail = assay: Test B pre/postemergence giant foxtail; format: in vivo, Setaria faberii
Summary of the method: as §1

wheat = assay: Test B pre/postemergence wheat; format: in vivo, Triticum aestivum
Summary of the method: as §1

smallflower flatsedge = assay: Test B flood test smallflower flatsedge; format: in vivo, Cyperus difformis
Summary of the method: as §2

rice = assay: Test B flood test rice; format: in vivo, Oryza sativa
Summary of the method: as §2

crabgrass = assay: Test B pre/postemergence crabgrass; format: in vivo, Digitaria sanguinalis
Summary of the method: as §1

[1] = Preemergence, Rate 62 g/ha, scale of 0 to 10 where 0 is no effect and 10 is complete control
[2] = Preemergence, Rate 250 g/ha, scale of 0 to 10 where 0 is no effect and 10 is complete control
[3] = Preemergence, Rate 500 g/ha, scale of 0 to 10 where 0 is no effect and 10 is complete control
[4] = Rate 62 g/ha, Postemergence, scale of 0 to 10 where 0 is no effect and 10 is complete control
[5] = Rate 125 g/ha, Postemergence, scale 0 to 10
[6] = Rate 125 g/ha, Preemergence, scale of 0 to 10 where 0 is no effect and 10 is complete control
[7] = Rate 500 g/ha, Postemergence, scale 0 to 10, 0 no effect, 10 complete control
[8] = Rate 62 g/ha, headed Pre-emergence (flood test species), scale 0 to 10 (0 no effect, 10 complete control)
[9] = Rate 125 g/ha, Pre-emergence, flood test species, scale 0 to 10 where 0 is no effect and 10 is complete control
[10] = Rate 250 g/ha, Pre-emergence, flood-test species, scale 0 to 10, 0 is no effect, 10 is complete control
[11] = Rate 500 g/ha, Pre-emergence, flood test species, scale 0 to 10 (0 no effect, 10 complete control)

CCCCc1ccc(N(C(=O)n2oc(=O)n(-c3ccccc3C)c2=O)C(C)C)cc1 [Compound 229]
1: Plant response rating (0 to 10; 0 is no effect, 10 is complete control), Soybean (soybean; Rate 250 g/ha, Postemergence)
2: Soybean plant response rating (soybean; [7]) | Velvetleaf plant response rating (velvetleaf; [7])
0: Blackgrass plant response rating (blackgrass; [1]) | Blackgrass plant response rating (blackgrass; [2]) | Plant response rating, Blackgrass (blackgrass; [3]) | Blackgrass plant response rating (blackgrass; [4]) | Blackgrass plant response rating (blackgrass; [5]) | Blackgrass plant response rating (blackgrass; [6]) | Plant response rating (0 to 10; 0 is no effect, 10 is complete control), Blackgrass (blackgrass; Rate 250 g/ha, Postemergence) | Blackgrass plant response rating (blackgrass; [7]) | Soybean plant response rating (soybean; [1]) | Soybean plant response rating (soybean; [2]) | Plant response rating, Soybean (soybean; [3]) | Soybean plant response rating (soybean; [4]) | Soybean plant response rating (soybean; [5]) | Soybean plant response rating (soybean; [6]) | B. signalgrass plant response rating (surinam grass; [1]) | B. signalgrass plant response rating (surinam grass; Preemergence, Rate 250 g/ha, scale 0 to 10, 0 is no effect, 10 is complete control) | Plant response rating, B. signalgrass (surinam grass; [3]) | B. signalgrass plant response rating (surinam grass; [4]) | B. signalgrass plant response rating (surinam grass; Rate 125 g/ha, Postemergence, scale 0 (no effect) to 10 (complete control)) | B. signalgrass plant response rating (surinam grass; [6]) | Plant response rating (0 to 10; 0 is no effect, 10 is complete control), B. signalgrass (surinam grass; Rate 250 g/ha, Postemergence) | B. signalgrass plant response rating (surinam grass; [7]) | Barnyardgrass plant response rating (bamyardgrass; [8]) | Barnyardgrass plant response rating (bamyardgrass; [9]) | Barnyardgrass plant response rating (bamyardgrass; [10]) | Barnyardgrass plant response rating (bamyardgrass; [11]) | Nutsedge plant response rating (purple nutsedge; [1]) | Nutsedge plant response rating (purple nutsedge; [2]) | Plant response rating, Nutsedge (purple nutsedge; [3]) | Nutsedge plant response rating (purple nutsedge; [4]) | Nutsedge plant response rating (purple nutsedge; [5]) | Nutsedge plant response rating (purple nutsedge; [6]) | Plant response rating (0 to 10; 0 is no effect, 10 is complete control), Nutsedge (purple nutsedge; Rate 250 g/ha, Postemergence) | Nutsedge plant response rating (purple nutsedge; [7]) | Bedstraw plant response rating (bedstraw; [1]) | Bedstraw plant response rating (bedstraw; [2]) | Plant response rating, Bedstraw (bedstraw; [3]) | Bedstraw plant response rating (bedstraw; [4]) | Bedstraw plant response rating (bedstraw; [5]) | Bedstraw plant response rating (bedstraw; [6]) | Plant response rating (0 to 10; 0 is no effect, 10 is complete control), Bedstraw (bedstraw; Rate 250 g/ha, Postemergence) | Bedstraw plant response rating (bedstraw; [7]) | Corn plant response rating (corn; [1]) | Corn plant response rating (corn; [2]) | Plant response rating, Corn (corn; [3]) | Corn plant response rating (corn; [4]) | Corn plant response rating (corn; [5]) | Corn plant response rating (corn; [6]) | Plant response rating (0 to 10; 0 is no effect, 10 is complete control), Corn (corn; Rate 250 g/ha, Postemergence) | Corn plant response rating (corn; [7]) | Velvetleaf plant response rating (velvetleaf; [1]) | Velvetleaf plant response rating (velvetleaf; [2]) | Plant response rating, Velvetleaf (velvetleaf; [3]) | Velvetleaf plant response rating (velvetleaf; [4]) | Velvetleaf plant response rating (velvetleaf; [5]) | Velvetleaf plant response rating (velvetleaf; [6]) | Plant response rating (0 to 10; 0 is no effect, 10 is complete control), Velvetleaf (velvetleaf; Rate 250 g/ha, Postemergence) | Rape plant response rating (rape; [1]) | Rape plant response rating (rape; [2]) | Plant response rating, Rape (rape; [3]) | Rape plant response rating (rape; [4]) | Rape plant response rating (rape; [5]) | Rape plant response rating (rape; [6]) | Plant response rating (0 to 10; 0 is no effect, 10 is complete control), Rape (rape; Rate 250 g/ha, Postemergence) | Rape plant response rating (rape; [7]) | Ducksalad plant response rating (duck salad; [8]) | Ducksalad plant response rating (duck salad; [9]) | Ducksalad plant response rating (duck salad; [10]) | Ducksalad plant response rating (duck salad; [11]) | Sugarbeets plant response rating (sugar beet; [1]) | Sugarbeets plant response rating (sugar beet; [2]) | Plant response rating, Sugarbeets (sugar beet; [3]) | Sugarbeets plant response rating (sugar beet; [4]) | Sugarbeets plant response rating (sugar beet; [5]) | Sugarbeets plant response rating (sugar beet; [6]) | Plant response rating (0 to 10; 0 is no effect, 10 is complete control), Sugarbeets (sugar beet; Rate 250 g/ha, Postemergence) | Sugarbeets plant response rating (sugar beet; [7]) | Cocklebur plant response rating (cocklebur; [1]) | Cocklebur plant response rating (cocklebur; [2]) | Plant response rating, Cocklebur (cocklebur; [3]) | Cocklebur plant response rating (cocklebur; [4]) | Cocklebur plant response rating (cocklebur; [5]) | Cocklebur plant response rating (cocklebur; [6]) | Plant response rating (0 to 10; 0 is no effect, 10 is complete control), Cocklebur (cocklebur; Rate 250 g/ha, Postemergence) | Cocklebur plant response rating (cocklebur; [7]) | Giant foxtail plant response rating (giant foxtail; [1]) | Giant foxtail plant response rating (giant foxtail; [2]) | Plant response rating, Giant foxtail (giant foxtail; [3]) | Giant foxtail plant response rating (giant foxtail; [4]) | Giant foxtail plant response rating (giant foxtail; [5]) | Giant foxtail plant response rating (giant foxtail; [6]) | Plant response rating (0 to 10; 0 is no effect, 10 is complete control), Giant foxtail (giant foxtail; Rate 250 g/ha, Postemergence) | Giant foxtail plant response rating (giant foxtail; [7]) | Wheat plant response rating (wheat; [1]) | Wheat plant response rating (wheat; [2]) | Plant response rating, Wheat (wheat; [3]) | Wheat plant response rating (wheat; [4]) | Wheat plant response rating (wheat; [5]) | Wheat plant response rating (wheat; [6]) | Plant response rating (0 to 10; 0 is no effect, 10 is complete control), Wheat (wheat; Rate 250 g/ha, Postemergence) | Wheat plant response rating (wheat; [7]) | S. Flatsedge plant response rating (smallflower flatsedge; [8]) | S. Flatsedge plant response rating (smallflower flatsedge; [9]) | S. Flatsedge plant response rating (smallflower flatsedge; [10]) | S. Flatsedge plant response rating (smallflower flatsedge; [11]) | Rice plant response rating (rice; [8]) | Rice plant response rating (rice; [9]) | Rice plant response rating (rice; [10]) | Rice plant response rating (rice; [11]) | Crabgrass plant response rating (crabgrass; [1]) | Crabgrass plant response rating (crabgrass; [2]) | Plant response rating, Crabgrass (crabgrass; [3]) | Crabgrass plant response rating (crabgrass; [4]) | Crabgrass plant response rating (crabgrass; [5]) | Crabgrass plant response rating (crabgrass; [6]) | Plant response rating (0 to 10; 0 is no effect, 10 is complete control), Crabgrass (crabgrass; Rate 250 g/ha, Postemergence) | Crabgrass plant response rating (crabgrass; [7])
